Molecules are shown by their SMILES.

Test [1] can be described thus: Object recognition task model. It counts as in vivo, Male Wistar rats. The note with it: 0.1 mg/kg, p.o. The protocol:
The cognition enhancing properties of compounds of this invention were estimated by using this model.
Male Wistar rats (230-280 grams) were used as experimental animals. Four animals were housed in each cage. Animals were kept on 20% food deprivation before one day and given water ad libitum throughout the experiment and maintained on a 12 hours light/dark cycle. Also the rats were habituated to individual arenas for 1 hour in the absence of any objects.
One group of 12 rats received vehicle (1 mL/Kg) orally and another set of animals received compound of the formula (I) either orally or i.p., before one hour of the familiar (T1) and choice trial (T2).
The experiment was carried out in a 50×50×50 cm open field made up of acrylic. In the familiarization phase, (T1), the rats were placed individually in the open field for 3 minutes, in which two identical objects (plastic bottles, 12.5 cm height×5.5 cm diameter) covered in yellow masking tape alone (a1 and a2) were positioned in two adjacent corners, 10 cms from the walls. After 24 hours of the (T1) trial for long-term memory test, the same rats were placed in the same arena as they were placed in T1 trial. Choice phase (T2) rats were allowed to explore the open field for 3 minutes in presence of one familiar object (a3) and one novel object (b) (Amber color glass bottle, 12 cm high and 5 cm in diameter). Familiar objects presented similar textures, colors and sizes. During the T1 and T2 trial, explorations of each object (defined as sniffing, licking, chewing or having moving vibrissae whilst directing the nose towards the object at a distance of less than 1 cm) were recorded separately by stopwatch. Sitting on an object was not regarded as exploratory activity, however, it was rarely observed.
T1 is the total time spent exploring the familiar objects (a1+a2).
T2 is the total time spent exploring the familiar object and novel object (a3+b).
The object recognition test was performed as described by Behaviour Brain Research, 31 (1988), 47-59.

For test [2], the system named is acetylcholine. The test is described as follows: Modulation of acetylcholine from the ventral hippocampus (microdialysis). It counts as in vivo, male Wistar rats. The note with it: 1.0 mg/kg, p.o. An excerpt: Male Wistar rats (240-300 grams) were stereotaxically implanted with a microdialysis guide cannula in ventral hippocampus (AP: −5.2 mm, ML: +5.0 mm, DV: −3.8 mm). Co-ordinates were taken according to Paxinos and Watson (2004) with reference points taken from bregma and vertical from the skull. The rats were allowed to recover individually for four to five days in a round bottom Plexiglas bowl with free access to feed and water.
One day prior to the microdialysis experiment, rats were connected to a dual quartz lined two-channel liquid swivel (Instech, UK) on a counter balance lever arm, which allowed unrestricted movements of the animal. […]
A stabilization period of 2 h was maintained and five basal samples were collected at 20 minutes intervals. […] Dialysates were stored below −70° C. until quantitation of acetylcholine.
(§1) Acetylcholine in dialysate was quantified in the calibration range of 0.103 nmol-103.491 nmol using LC-MS/MS method.
All microdialysis data were plotted as percent change from mean dialysate basal concentrations with 100% defined as the average of five pre-dose values. The AUC was calculated by trapezoidal rule using WinNonlin (5.0.1 version, Pharsight Corp. CA). The statistical significance between the mean AUC values of treatment groups with vehicle was calculated using one-way ANOVA followed by Dunnett's test. […]

Test [3] relates to acetylcholine. In words: Modulation of acetylcholine from the frontal cortex (microdialysis). The format is in vivo, male Wistar rats. The following applies: p.o.
Text: Male Wistar rats (240-300 grams) were stereotaxically implanted with a microdialysis guide cannula in frontal cortex (AP: +3.2 mm, ML: −3.2 mm, DV: −1.5 mm). Co-ordinates were taken according to Paxinos and Watson (2004) with reference points taken from bregma and vertical from the skull. The rats were allowed to recover individually for four to five days in a round bottom Plexiglas bowl with free access to feed and water.
One day prior to the microdialysis experiment, rats were connected to a dual quartz lined two-channel liquid swivel (Instech, UK) on a counter balance lever arm, which allowed unrestricted movements of the animal. Sixteen hour before start of study, a pre-equilibrated microdialysis probe (3 mm dialysis membrane) was inserted into the frontal cortex through the guide cannula.
A stabilization period of 2 hours was maintained and five basal samples were collected at 20 minutes intervals. The test compound, Example 50 or vehicle was administered and dialysate samples were collected at 20 minutes interval for an additional period of 4 hours. Dialysates were stored below −70° C. until quantitation of acetylcholine.
as §1
All microdialysis data were plotted as percent change from mean dialysate basal concentrations with 100% defined as the average of five pre-dose values. The AUC was calculated by trapezoidal rule using WinNonlin (5.0.1 version, Pharsight Corp. CA). The statistical significance between the mean AUC values of treatment groups with vehicle was calculated using one-way ANOVA followed by Dunnett's test. For each treatment group, the percent increase in acetylcholine levels was compared to the vehicle group using two-way analysis of variance (time and treatment), followed by Bonferroni's multiple comparison test. Statistical significance was considered at a p value less than 0.05.
In-correct probe placement was considered as criteria to reject the data from animal.

Regarding `CC(C)(O)CN1CCC(F)(CNC(=O)c2cc(Cl)c(N)c3ccoc23)CC1` [Example 50, 4-Amino-5-chloro-N-{[4-fluoro-1-(2-hydroxy-2-methylpropyl)-4-piperidinyl]methyl}benzofuran-7-carboxamide L(+)-tartarate], in test [1], the “Exploration time mean ± S.E.M, Familiar object” value is 9.89 ± 1.49 s; the “Exploration time mean ± S.E.M, Novel object” value is 18.58 ± 2.44 s; the Inference entry is on record as “Active”. Further, in the test with acetylcholine [2], the “Area under the curve increase, hippocampal acetylcholine” value is 31% and the “increase in acetylcholine levels from ventral hippocampus” value is given as 51%. For the same molecule, in the test on acetylcholine [3] (10.0 mg/kg), the “Acetylcholine levels, frontal cortex, % of pre-dose levels” value turned out to be 204% and the “Area under the curve (AUC), frontal cortex acetylcholine” value is recorded as “significant increase”. Also, the “acetylcholine levels of frontal cortex” value with acetylcholine [3] (across doses) is recorded as “dose-dependent increase”.

The values are drawn from patent US9957257B2, “Amide compounds as 5-HT4 receptor agonists” (SUVEN LIFE SCIENCES LIMITED, priority 2015, dated 2018).
